Like-named read-outs stand apart in the source and are kept apart here. One block for each compound: values may come before it.
How the values were obtained:
Type in all cases: biochemical
[1] = target: T1, SIRT1 (Homo sapiens, UniProt Q96EB6); experiment: PNC1-GDH (non-fluorometric) Nicotinamide Assay of SIRT1 deacetylation; settings: FIG. 4; Nicotinamide Assay depicted in FIG. 1 (PNC1-GDH); read-out: NAD Km value for SIRT1
T1 sequence (Q96EB6 1-747): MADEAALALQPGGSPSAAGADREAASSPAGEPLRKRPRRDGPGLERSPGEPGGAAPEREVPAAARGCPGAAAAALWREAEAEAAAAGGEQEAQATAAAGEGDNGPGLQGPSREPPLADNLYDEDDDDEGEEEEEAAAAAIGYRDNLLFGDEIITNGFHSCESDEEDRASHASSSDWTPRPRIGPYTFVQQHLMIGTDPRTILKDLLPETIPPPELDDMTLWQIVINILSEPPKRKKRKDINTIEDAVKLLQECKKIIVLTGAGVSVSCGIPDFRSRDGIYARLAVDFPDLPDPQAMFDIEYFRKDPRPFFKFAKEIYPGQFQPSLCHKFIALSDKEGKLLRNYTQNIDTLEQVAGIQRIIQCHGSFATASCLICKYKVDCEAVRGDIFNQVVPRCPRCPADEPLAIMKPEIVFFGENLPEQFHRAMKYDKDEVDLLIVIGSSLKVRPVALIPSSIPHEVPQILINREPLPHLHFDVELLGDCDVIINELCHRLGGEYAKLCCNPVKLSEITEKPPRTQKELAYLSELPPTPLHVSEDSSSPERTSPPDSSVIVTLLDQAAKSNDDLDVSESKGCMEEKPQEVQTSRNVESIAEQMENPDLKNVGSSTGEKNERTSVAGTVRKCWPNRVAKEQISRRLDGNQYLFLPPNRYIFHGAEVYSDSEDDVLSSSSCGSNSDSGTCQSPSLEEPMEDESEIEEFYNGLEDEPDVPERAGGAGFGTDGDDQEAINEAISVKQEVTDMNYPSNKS
Experimental: A SIRT1 enzymatic deacetylation reaction was carried out in the presence of an acetylated substrate and β-NAD. […] Subsequently, a-Ketoglutarate and NADPH were added to the reaction mix. The absorbance was read at 340 nm using an appropriate spectrophotometer (Ro). PNC1 and GDH were then added in excess to induce the coupled conversion of NADPH to NADP (PNC1 first converts NAM to NH3, and subsequently GDH uses the ammonia to oxidize NADPH to NADP). A second reading at 340 nm was then obtained (R1). The difference in absorbance readings, R1-Ro is proportional to the amount of NAM produced in the initial deacetylation reaction, thereby allowing for the measurement of activity. A blank reaction was carried out in the absence of NAD (or absence of Enzyme), as above, and subtracted from each sample in order to normalize the data.
Ex. Substrate Concentration (BIOMOL)=20 uM; NAD Concentration=1 mM
1) Mix the following (final volume 100 uL): • a) 10 uL 10×BIOMOL Buffer (250 mM Tris-Cl [pH=8], 1.37 M NaCl, 27 mM KCl, 10 mM MgCl2) • b) 0.4 uL *H4K16-Lys BIOMOL peptide (from a 5 mM stock for a final concentration of 20 uM) • c) 1 uL of 100 mM B-NAD (for a final concentration of 1 mM) • d) 2 uL SIRT1 enzyme (at 1.2 ug/ul, total ˜2.5 ug) • e) […] ddH20 2) Mix the reaction by pipetting. […] Place the reaction on ice until ready to proceed with reaction 2 (Centrifuge Briefly). […]

[2] = target: T1, SIRT1; experiment: PNC1-OPT fluorescent Nicotinamide Assay of SIRT1 deacetylation
Experimental: A SIRT1 enzymatic deacetylation reaction was carried out in the presence of an acetylated substrate and β-NAD. […] Subsequently, PNC1 was added to the mixture to convert all of the nicotinamide generated during the reaction into ammonia. Additionally, PNC1 may be added directly to the SIRT1 reaction (and the reactions may proceed simultaneously). […] In brief, the products of the PNC1 reaction were reacted with o-phthaladehyde in the presence of DTT. The reaction was allowed to proceed for 1 hour, and subsequently the amount of fluorescent adducts obtained were measured fluorometrically with excitation at ˜413 nm and emission at ˜476 nm. […] A blank reaction was also performed in the absence of NAD.
Prepare a master-mix for the total number of reactions you wish to perform. For each individual reaction, mix the following in the order presented (the total volume for each reaction is 100 uL):
Incubate at 37° C. for the appropriate amount of time (typically 1 hour) Reaction 2: Nicotinamide→Ammonia→Fluorescent adducts Note: When adding the OPT Developer it is advisable to work in a dark or dimly lit setting. Dim the lights prior to adding the developer to each reaction. a) Add 100 uL of the OPT Developer Mix to each reaction. b) Mix each sample by vortexing briefly for 5 s at the highest setting. c) Immediately cover all of the samples with Aluminum foil, and incubate the reactions on an orbital shaker for 1 hour at room temperature. Once covered, ambient lighting may be restored. 3) If necessary samples may be transferred to a 96-well plate for reading (do this under dim light). Read the fluorescence on a fluorometer with filters set to excitation (˜420 nm+/−20, and emission ˜450 nm (+/−20). A 0.1 s or 1 s read is generally recommended.
OPT Developer Reagent: A solution of 10 mM OPT and 10 mM DTT in 100% EtOH. Store at −20° C. in the dark until use. Cover with Aluminum foil in order to minimize exposure to light.

[3] = target: T2, full-length human SIRT1 enzyme (Homo sapiens, UniProt Q96EB6); experiment: Sirtuin assay kit (PNC1-OPT) with hSIRT1 enzyme
T2 construct: 1.1 ug/uL full-length human SIRT1 enzyme
T2 sequence (Q96EB6 1-747): T1 sequence (Q96EB6 1-747)
Experimental: Kit contents are generally stored at −20° C. Modifications or variations in volumes or amounts of components described below are compatible with kits and assays described herein. • 1) Assay Buffer: 2 tubes with 1 mL each of 10× Assay Buffer. Dilute to 1× with ddH20 prior to use. • 2) Non-tagged Peptide Substrate: 1 tube with 140 uL of 5 mM H3K9ac substrate (TARK(ac)STG)) (SEQ ID NO:23). This is a sample substrate only; any substrate may be used in this assay. • 3) β-NAD: a) 1 tube with 450 uL of 10 mM B-NAD, and b) 1 tube with 50 uL of 100 mM B-NAD. In some instances, it is preferable to keep β-NAD in concentrated aliquot form, and dilute it prior to use. • 4) hSIRT1 Enzyme: 1 tube with 400 uL of 1.1 ug/uL full-length human SIRT1 enzyme. • 5) yPNC1 Enzyme: 1 tube with 200 uL of 2 ug/uL yeast PNC1 enzyme • 6) Developing Reagent: 2 vials with 10 mL each 1× Developer (10 mM OPT/10 mM DTT in 100% EtOH). Minimize exposure to light as outlined in the procedure. […]
In some instances, when adding the OPT Developer it is advisable to work in a dark or dimly lit setting. […] Once covered, ambient lighting may be restored. • d) Read the samples. Samples may be transferred to a 96-well plate for reading (do this under dim light). Read the fluorescence on a fluorometer with filters set to excitation ˜420 nm, and emission ˜460 nm. […]

Km [1]: 80 to 100 µM
Km ([2]; FIG. 8D, Nicotinamide Assay depicted in FIG. 6 (PNC1-OPT), Fleur de Lys peptide as substrate, read-out: NAD Km value for SIRT1): ~200 µM
Km ([3]; kit protocol, Experiment 2 mastermix, read-out: Km of β-NAD (final concentration = Km)): 150 µM
Km ([3]; stated in kit protocol (blank control note), read-out: Km for NAD): ~160 µM
Compound: NC(=O)C1=CN([C@@H]2O[C@H](COP(=O)(O)OP(=O)(O)OC[C@H]3O[C@@H](n4cnc5c(N)ncnc54)[C@H](O)[C@@H]3O)[C@@H](O)[C@H]2O)C=CC1 [NAD, β-nicotinamide adenine dinucleotide]

effect on SIRT1 deacetylase activity on the Fleur de Lys substrate ([2]; FIG. 10C, 100 uM, 75 uM β-NAD and 25 uM Fleur de Lys substrate): activation of SIRT1 deacetylase activity
Compound: Oc1ccc(C=Cc2cc(O)cc(O)c2)cc1 [Resveratrol, reference compound]

Compound: Adenosine diphosphate ribose [ADPr, reference compound]
mechanism of SIRT1 inhibition ([2]; FIG. 19/20, Vmax and Vmax/K vs [ADPr] for β-NAD and H3K9 peptide): competitive inhibitor of β-NAD

effect of concentration on SIRT1 activity (dose titration) ([2]; FIG. 21B, H3K9-L peptide substrate): inversely correlates with SIRT1 activity
Compound: DBC1: endogenous SIRT1 protein inhibitor

Reference: patent US20120164670A1, “METHODS AND KITS FOR MEASURING ENZYME ACTIVITY” (President and Fellows of Harvard College, priority 2009, published 2012)
